In brackets after ≈: the same amount, converted by molar mass.
Key:
Type in all cases: functional
Enterobacter cloacae = experiment: Compound was evaluated for antibacterial activity against Enterobacter cloacae P99.
Escherichia coli [1] = experiment: Compound was evaluated for antibacterial activity against Escherichia coli DC 0.
Klebsiella pneumoniae = experiment: Compound was evaluated for antibacterial activity against Klebsiella pneumoniae NCTC 9632.
Proteus vulgaris = experiment: Compound was evaluated for antibacterial activity against Proteus vulgaris GN76.
Pseudomonas aeruginosa [2] = experiment: Compound was evaluated for antibacterial activity against Pseudomonas aeruginosa 1771.
Pseudomonas aeruginosa [3] = experiment: Compound was evaluated for antibacterial activity against Pseudomonas aeruginosa 1771M.
Pseudomonas aeruginosa [4] = experiment: Compound was evaluated for antibacterial activity against Pseudomonas aeruginosa 9027.
Pseudomonas aeruginosa [5] = experiment: Compound was evaluated for antibacterial activity against Pseudomonas aeruginosa C-1198.
Staphylococcus aureus [6] = experiment: Compound was evaluated for antibacterial activity against Staphylococcus aureus C2379 (MRSA).
Staphylococcus aureus [7] = experiment: Compound was evaluated for antibacterial activity against Staphylococcus aureus Smith.
Streptococcus pyogenes = experiment: Compound was evaluated for antibacterial activity against Streptococcus pyogenes A77.
Serratia marcescens = experiment: Compound was evaluated for antibacterial activity against Serratia marcescens IFO 12648.
Streptococcus pneumoniae = experiment: Compound was evaluated for antibacterial activity against Streptococcus pneumoniae type I.
Escherichia coli [8] = experiment: Compound was evaluated for antibacterial activity against Escherichia coli DC 2.

| MIC (Enterobacter cloacae) [mg/L] | MIC (Escherichia coli [1]) [mg/L] | MIC (Klebsiella pneumoniae) [mg/L] | MIC (Proteus vulgaris) [mg/L] | MIC (Pseudomonas aeruginosa [2]) [mg/L] | MIC (Pseudomonas aeruginosa [3]) [mg/L] | MIC (Pseudomonas aeruginosa [4]) [mg/L] | MIC (Pseudomonas aeruginosa [5]) [mg/L] | MIC (Staphylococcus aureus [6]) [mg/L] | MIC (Staphylococcus aureus [7]) [mg/L] | MIC (Streptococcus pyogenes) [mg/L] | MIC (Serratia marcescens) [mg/L] | MIC (Streptococcus pneumoniae) [mg/L] | MIC (Escherichia coli [8]) [mg/L] | SMILES |
| --- | --- | --- | --- | --- | --- | --- | --- | --- | --- | --- | --- | --- | --- | --- |
| 50 (≈ 74.4 µM) | 0.781 (≈ 1.16 µM) | 0.098 (≈ 0.146 µM) | 0.049 (≈ 0.0729 µM) | 3.12 (≈ 4.65 µM) | 0.391 (≈ 0.582 µM) | 12.5 (≈ 18.6 µM) | 50 (≈ 74.4 µM) | 100 (≈ 149 µM) | 12.5 (≈ 18.6 µM) | 0.013 (≈ 0.0194 µM) | 1.56 (≈ 2.33 µM) | 0.049 (≈ 0.0729 µM) | 0.098 (≈ 0.146 µM) | CC(=O)N(O)CCO/N=C(\C(=O)N[C@@H]1C(=O)N2C(C(=O)O)=C(CSc3nc(C)c(CC(=O)O)s3)CS[C@H]12)c1csc(N)n1 |
| 25 (≈ 44.5 µM) | 0.781 (≈ 1.39 µM) | 0.098 (≈ 0.175 µM) | 0.781 (≈ 1.39 µM) | 0.781 (≈ 1.39 µM) | 0.391 (≈ 0.696 µM) | 6.25 (≈ 11.1 µM) | 25 (≈ 44.5 µM) | 12.5 (≈ 22.3 µM) | 3.12 (≈ 5.56 µM) | 0.007 (≈ 0.0125 µM) | 0.391 (≈ 0.696 µM) | 0.049 (≈ 0.0873 µM) | 0.195 (≈ 0.347 µM) | CC(=O)N(O)CCO/N=C(\C(=O)N[C@@H]1C(=O)N2C(C(=O)[O-])=C(C[n+]3ccccc3)CS[C@H]12)c1csc(N)n1 |
| 50 (≈ 78.8 µM) | 1.56 (≈ 2.46 µM) | 0.025 (≈ 0.0394 µM) | 3.12 (≈ 4.92 µM) | 3.12 (≈ 4.92 µM) | 3.12 (≈ 4.92 µM) | 12.5 (≈ 19.7 µM) | 50 (≈ 78.8 µM) | 12.5 (≈ 19.7 µM) | 1.56 (≈ 2.46 µM) | 0.025 (≈ 0.0394 µM) | 3.12 (≈ 4.92 µM) | 0.025 (≈ 0.0394 µM) | 1.56 (≈ 2.46 µM) | CC(=O)N(O)CCO/N=C(\C(=O)N[C@@H]1C(=O)N2C(C(=O)[O-])=C(CSc3cccc4[n+]3CCN4)CS[C@H]12)c1csc(N)n1 |
| 25 (≈ 41.6 µM) | 0.391 (≈ 0.65 µM) | 0.195 (≈ 0.324 µM) | 1.56 (≈ 2.6 µM) | 1.56 (≈ 2.6 µM) | 0.781 (≈ 1.3 µM) | 6.25 (≈ 10.4 µM) | 50 (≈ 83.1 µM) | 6.25 (≈ 10.4 µM) | 0.781 (≈ 1.3 µM) | 0.004 (≈ 0.00665 µM) | 0.781 (≈ 1.3 µM) | 0.025 (≈ 0.0416 µM) | 0.195 (≈ 0.324 µM) | CC(=O)N(O)CCO/N=C(\C(=O)N[C@@H]1C(=O)N2C(C(=O)[O-])=C(C[n+]3cccc4c3CCC4)CS[C@H]12)c1csc(N)n1 |
| 50 (≈ 77.1 µM) | 12.5 (≈ 19.3 µM) | 0.781 (≈ 1.2 µM) | 6.25 (≈ 9.63 µM) | 25 (≈ 38.5 µM) | 6.25 (≈ 9.63 µM) | 50 (≈ 77.1 µM) | > 100 | 50 (≈ 77.1 µM) | 12.5 (≈ 19.3 µM) | 0.007 (≈ 0.0108 µM) | 12.5 (≈ 19.3 µM) | 0.049 (≈ 0.0755 µM) | 0.391 (≈ 0.603 µM) | CC(=O)N(O)CCO/N=C(\C(=O)N[C@@H]1C(=O)N2C(C(=O)[O-])=C(C[n+]3ccc(CN(O)C(C)=O)cc3)CS[C@H]12)c1csc(N)n1 |

| SMILES | MIC (Enterobacter cloacae) [mg/L] | MIC (Escherichia coli [1]) [mg/L] | MIC (Klebsiella pneumoniae) [mg/L] | MIC (Proteus vulgaris) [mg/L] | MIC (Pseudomonas aeruginosa [2]) [mg/L] | MIC (Pseudomonas aeruginosa [3]) [mg/L] | MIC (Pseudomonas aeruginosa [4]) [mg/L] | MIC (Pseudomonas aeruginosa [5]) [mg/L] | MIC (Staphylococcus aureus [6]) [mg/L] | MIC (Staphylococcus aureus [7]) [mg/L] | MIC (Streptococcus pyogenes) [mg/L] | MIC (Serratia marcescens) [mg/L] | MIC (Streptococcus pneumoniae) [mg/L] | MIC (Escherichia coli [8]) [mg/L] |
| --- | --- | --- | --- | --- | --- | --- | --- | --- | --- | --- | --- | --- | --- | --- |
| CC(C)(O/N=C(\C(=O)N[C@@H]1C(=O)N2C(C(=O)[O-])=C(C[n+]3ccccc3)CS[C@H]12)c1csc(N)n1)C(=O)O [CEFTAZIDIME] | > 100 | 0.195 (≈ 0.357 µM) | 0.049 (≈ 0.0896 µM) | 0.049 (≈ 0.0896 µM) | 0.781 (≈ 1.43 µM) | 0.391 (≈ 0.715 µM) | 3.12 (≈ 5.72 µM) | > 100 | 50 (≈ 91.5 µM) | 6.25 (≈ 11.4 µM) | 0.098 (≈ 0.179 µM) | 0.098 (≈ 0.179 µM) | 0.195 (≈ 0.357 µM) | 0.098 (≈ 0.179 µM) |

— ChEMBL document CHEMBL1129155, “Synthesis and antibacterial activity of cephalosporins having hydroxamic acid at C-7 position” (1996)
